Reference: PubChem BioAssay AID192 (DTP/NCI, 2004)
“And” between values parts separate entries of the source, which are not always exact repeats. Equal values may be shown once. Toxic doses and inconclusive results are not listed.

Tested on: BDF1 mice, B16 melanoma ip, median survival T/C
Experiment: NCI In Vivo Anticancer Drug Screen. Data for tumor model B16 Melanoma (intraperitoneal) in B6D2F1 (BDF1) mice
Conditions: endpoint: median survival time, higher = longer survival
Procedure: The antitumor activity of compounds was measured in mice bearing transplantable tumors. Survival or tumor size were measured and the results are expressed as the measurement made in the treated group (T) divided by the measurement made in the vehicle treated control group (C). The tumor model used in this assay is B16 Melanoma (intraperitoneal) in B6D2F1 (BDF1) mice

[1] = dose: 12.5 mg/kg/injection, schedule: Q01DX009 (ip), vehicle: saline with Tween-80
[2] = dose: 25.0 mg/kg/injection, schedule: Q01DX009 (ip), vehicle: saline with Tween-80
[3] = dose: 50.0 mg/kg/injection, schedule: Q01DX009 (ip), vehicle: saline with Tween-80
[4] = dose: 100.0 mg/kg/injection, schedule: Q01DX009 (ip), vehicle: saline with Tween-80
[5] = dose: 200.0 mg/kg/injection, schedule: Q01DX009 (ip), vehicle: saline with Tween-80
[6] = dose: 16.0 mg/kg/injection, schedule: Q01DX009 (ip), vehicle: saline with Tween-80
[7] = dose: 25.0 mg/kg/injection, schedule: Q01DX009 (ip), vehicle: saline
[8] = dose: 100.0 mg/kg/injection, schedule: Q04DX003 (ip), vehicle: Klucel (hydroxypropylcellulose) (HPC)
[9] = dose: 200.0 mg/kg/injection, schedule: Q04DX003 (ip), vehicle: Klucel (hydroxypropylcellulose) (HPC)
[10] = dose: 400.0 mg/kg/injection, schedule: Q04DX003 (ip), vehicle: Klucel (hydroxypropylcellulose) (HPC)
[11] = dose: 50.0 mg/kg/injection, schedule: Q01DX009 (ip), vehicle: Klucel (hydroxypropylcellulose) (HPC)
[12] = dose: 100.0 mg/kg/injection, schedule: Q01DX009 (ip), vehicle: Klucel (hydroxypropylcellulose) (HPC)
[13] = dose: 200.0 mg/kg/injection, schedule: Q01DX009 (ip), vehicle: Klucel (hydroxypropylcellulose) (HPC)
[14] = dose: 400.0 mg/kg/injection, schedule: Q01DX009 (ip), vehicle: Klucel (hydroxypropylcellulose) (HPC)
[15] = dose: 12.5 mg/kg/injection, schedule: Q01DX009 (ip), vehicle: Klucel (hydroxypropylcellulose) (HPC)

Structure (SMILES): NC(N)=N/N=C(/c1ccccc1)c1ccc(F)cc1
- T/C (dose: 20.0 mg/kg/injection, schedule: Q01DX009 (ip), vehicle: saline): 110 % of control
- T/C (dose: 40.0 mg/kg/injection, schedule: Q01DX009 (ip), vehicle: saline): 115 % of control
- T/C (dose: 80.0 mg/kg/injection, schedule: Q01DX009 (ip), vehicle: saline): 102 % of control

Structure (SMILES): O=NN(CCCl)C(=O)NC1c2cc(Cl)ccc2-c2c(Cl)cc(Cl)cc21 (configuration not stated)
- T/C [1]: 169 % of control
- T/C [2]: 195 % of control
- T/C [3]: 181 % of control and 186 % of control
- T/C [4]: 104 % of control and 231 % of control
- T/C [5]: 175 % of control

Structure (SMILES): CCOC(=O)C1(C(=O)OCC)COC(=O)C1
- T/C [6]: 101 % of control
- T/C (dose: 32.0 mg/kg/injection, schedule: Q01DX009 (ip), vehicle: saline with Tween-80): 101 % of control
- T/C (dose: 64.0 mg/kg/injection, schedule: Q01DX009 (ip), vehicle: saline with Tween-80): 101 % of control
- T/C (dose: 128.0 mg/kg/injection, schedule: Q01DX009 (ip), vehicle: saline with Tween-80): 104 % of control
- T/C (dose: 256.0 mg/kg/injection, schedule: Q01DX009 (ip), vehicle: saline with Tween-80): 97 % of control

Structure (SMILES): Cc1[nH]c(=S)sc1C
- T/C [7]: 102 % of control
- T/C (dose: 50.0 mg/kg/injection, schedule: Q01DX009 (ip), vehicle: saline): 91 % of control
- T/C (dose: 100.0 mg/kg/injection, schedule: Q01DX009 (ip), vehicle: saline): 102 % of control

Structure (SMILES): C/C=C/CNc1ccccc1
- T/C [3]: 101 % of control
- T/C [4]: 94 % of control

Structure (SMILES): O=C(Nc1ccccc1Cl)Oc1ccccc1Cc1ccccc1
- T/C [8]: 100 % of control
- T/C [9]: 106 % of control
- T/C [10]: 93 % of control

Structure (SMILES): FC(F)(F)c1ccc2c(c1)N(CCCN1CCN(CCOCCCl)CC1)c1ccccc1S2
- T/C (dose: 0.39 mg/kg/injection, schedule: Q01DX009 (ip), vehicle: saline): 123 % of control
- T/C (dose: 0.78 mg/kg/injection, schedule: Q01DX009 (ip), vehicle: saline): 115 % of control
- T/C (dose: 1.56 mg/kg/injection, schedule: Q01DX009 (ip), vehicle: saline): 110 % of control
- T/C (dose: 2.34 mg/kg/injection, schedule: Q04DX003 (ip), vehicle: saline): 92 % of control
- T/C (dose: 4.68 mg/kg/injection, schedule: Q04DX003 (ip), vehicle: saline): 86 % of control

Structure (SMILES): CCCCCCCCC(=O)CCC
- T/C [8]: 88 % of control
- T/C [9]: 90 % of control
- T/C [10]: 94 % of control

Structure (SMILES): [Cl][Pt+2][Cl].[NH-]CC1(C[NH-])CCCCC1
- T/C (dose: 1.5 mg/kg/injection, schedule: Q01DX009 (ip), vehicle: saline): 190 % of control
- T/C (dose: 3.0 mg/kg/injection, schedule: Q01DX009 (ip), vehicle: saline): 208 % of control
- T/C (dose: 6.0 mg/kg/injection, schedule: Q01DX009 (ip), vehicle: saline): 208 % of control

Structure (SMILES): O.O.[NH-]C1CCCCC1[NH-].[Pt+2] (configuration not stated)
- T/C (dose: 0.62 mg/kg/injection, schedule: Q01DX009 (ip), vehicle: dextrose): 91 % of control and 111 % of control
- T/C (dose: 1.25 mg/kg/injection, schedule: Q01DX009 (ip), vehicle: dextrose): 118 % of control
- T/C (dose: 1.25 mg/kg/injection, schedule: Q01DX009 (ip), vehicle: other): 120 % of control
- T/C (dose: 2.5 mg/kg/injection, schedule: Q01DX009 (ip), vehicle: dextrose): 124 % of control
- T/C (dose: 2.5 mg/kg/injection, schedule: Q01DX009 (ip), vehicle: other): 120 % of control
- T/C (dose: 10.0 mg/kg/injection, schedule: Q01DX009 (ip), vehicle: other): 155 % of control

Structure (SMILES): O=[N+]([O-])c1ccc(S(=O)(=O)O)c([N+](=O)[O-])c1.[Ag]
- T/C (dose: 12.5 mg/kg/injection, schedule: Q04DX003 (ip), vehicle: DMSO): 86 % of control
- T/C (dose: 25.0 mg/kg/injection, schedule: Q04DX003 (ip), vehicle: DMSO): 86 % of control

Structure (SMILES): O=NN(CCCl)C(=O)NCCO
- T/C (dose: 3.12 mg/kg/injection, schedule: Q01DX009 (ip), vehicle: water): 176 % of control

Structure (SMILES): CCCC(C#N)(c1ccccc1)c1ccccc1
- T/C [11]: 90 % of control
- T/C [12]: 90 % of control
- T/C [13]: 93 % of control

Structure (SMILES): CN(N=O)C(=O)Nc1c[nH]c(=O)[nH]c1=O
- T/C (dose: 0.13 mg/kg/injection, schedule: Q01DX009 (ip), vehicle: saline with Tween-80): 113 % of control
- T/C (dose: 0.5 mg/kg/injection, schedule: Q01DX009 (ip), vehicle: saline with Tween-80): 105 % of control
- T/C (dose: 1.0 mg/kg/injection, schedule: Q01DX009 (ip), vehicle: saline with Tween-80): 105 % of control
- T/C (dose: 2.0 mg/kg/injection, schedule: Q01DX009 (ip), vehicle: saline with Tween-80): 115 % of control
- T/C (dose: 8.0 mg/kg/injection, schedule: Q01DX009 (ip), vehicle: saline with Tween-80): 170 % of control
- T/C [6]: 182 % of control
- T/C (dose: 16.5 mg/kg/injection, schedule: Q01DX009 (ip), vehicle: saline with Tween-80): 193 % of control
- T/C [2]: 200 % of control
- T/C [7]: 176 % of control
- T/C (dose: 37.5 mg/kg/injection, schedule: Q01DX009 (ip), vehicle: saline with Tween-80): 200 % of control

Structure (SMILES): Cc1cc(C)cc(OC(=O)/C=C/C(=O)Oc2cc(C)cc(C)c2)c1
- T/C [2]: 98 % of control
- T/C [3]: 87 % of control
- T/C [4]: 93 % of control

Structure (SMILES): CCOc1ccccc1NC(=O)Nc1cccc2ccccc12
- T/C [12]: 103 % of control
- T/C [13]: 100 % of control
- T/C [14]: 103 % of control

Structure (SMILES): CCOC1c2cc(OC)ccc2C(=O)CCN1S(=O)(=O)c1ccc(C)cc1 (configuration not stated)
- T/C [8]: 93 % of control
- T/C [9]: 102 % of control
- T/C [10]: 102 % of control

Structure (SMILES): CC(C)(C)c1ccc(CN2CCN(C(c3ccccc3)c3ccc(Cl)cc3)CC2)cc1 (configuration not stated)
- T/C (dose: 0.39 mg/kg/injection, schedule: Q01DX009 (ip), vehicle: Klucel (hydroxypropylcellulose) (HPC)): 86 % of control
- T/C (dose: 3.12 mg/kg/injection, schedule: Q01DX009 (ip), vehicle: Klucel (hydroxypropylcellulose) (HPC)): 95 % of control
- T/C (dose: 6.25 mg/kg/injection, schedule: Q01DX009 (ip), vehicle: Klucel (hydroxypropylcellulose) (HPC)): 90 % of control
- T/C [15]: 87 % of control
- T/C (dose: 175.0 nanograms/kg/injection, schedule: Q01DX009 (ip), vehicle: Klucel (hydroxypropylcellulose) (HPC)): 105 % of control
- T/C (dose: 350.0 nanograms/kg/injection, schedule: Q01DX009 (ip), vehicle: Klucel (hydroxypropylcellulose) (HPC)): 105 % of control
- T/C (dose: 700.0 nanograms/kg/injection, schedule: Q01DX009 (ip), vehicle: Klucel (hydroxypropylcellulose) (HPC)): 101 % of control
- T/C (dose: 1400.0 nanograms/kg/injection, schedule: Q01DX009 (ip), vehicle: Klucel (hydroxypropylcellulose) (HPC)): 105 % of control
- T/C (dose: 2800.0 nanograms/kg/injection, schedule: Q01DX009 (ip), vehicle: Klucel (hydroxypropylcellulose) (HPC)): 107 % of control

Structure (SMILES): O=C1c2ccccc2S(=O)(=O)c2ccc(Br)cc21
- T/C [12]: 93 % of control
- T/C [13]: 90 % of control
- T/C [14]: 93 % of control

Structure (SMILES): Cc1cc(=O)n(C)c2ccccc12
- T/C [15]: 90 % of control
- T/C (dose: 25.0 mg/kg/injection, schedule: Q01DX009 (ip), vehicle: Klucel (hydroxypropylcellulose) (HPC)): 90 % of control
- T/C [11]: 90 % of control
- T/C (dose: 50.0 mg/kg/injection, schedule: Q04DX003 (ip), vehicle: Klucel (hydroxypropylcellulose) (HPC)): 107 % of control
- T/C [12]: 90 % of control
- T/C [8]: 102 % of control
- T/C [9]: 102 % of control

Structure (SMILES): NC(=S)n1cccn1
- T/C [2]: 96 % of control
- T/C [3]: 114 % of control
- T/C [4]: 94 % of control

Structure (SMILES): ClC1=C(Cl)C2(Cl)C3C(Cl)C(Cl)CC3C1(Cl)C2(Cl)Cl (configuration not stated)
- T/C [1]: 95 % of control
- T/C [2]: 97 % of control

Structure (SMILES): CC(C)Cc1ccc(C(=O)O)cc1
- T/C (dose: 75.0 mg/kg/injection, schedule: Q04DX003 (ip), vehicle: Klucel (hydroxypropylcellulose) (HPC)): 102 % of control
- T/C (dose: 150.0 mg/kg/injection, schedule: Q04DX003 (ip), vehicle: Klucel (hydroxypropylcellulose) (HPC)): 105 % of control
- T/C (dose: 300.0 mg/kg/injection, schedule: Q04DX003 (ip), vehicle: Klucel (hydroxypropylcellulose) (HPC)): 111 % of control

Structure (SMILES): COc1ccc(S(=O)O)cc1NC(C)=O
- T/C [8]: 95 % of control

Structure (SMILES): COc1ccc(-c2ccc(OC)c(OC)c2OC)c(N)c1
- T/C [4]: 107 % of control
- T/C [5]: 107 % of control
- T/C (dose: 400.0 mg/kg/injection, schedule: Q01DX009 (ip), vehicle: saline with Tween-80): 94 % of control

Structure (SMILES): NC(=O)NNc1ccc([N+](=O)[O-])cc1[N+](=O)[O-]
- T/C [1]: 95 % of control
- T/C [2]: 97 % of control
- T/C [3]: 97 % of control
